Assay results published in article PMC10303200 (ACS Central Science, 2023).

Tests used:
Format in all cases: binding
[1] = target: RCA-I (Ricinus communis agglutinin) (Ricinus communis, UniProt P06750); conditions: pH 6.9; read-out: Kd (Native)
DC-SIGN CRD [2] = target: T1, DC-SIGN CRD (Homo sapiens, UniProt Q9NNX6); test: Direct native ESI-MS (submicron emitters) with a mixture of ten glycans (G2, G5, G10, G14-G20), 200 mM ammonium acetate with 2.5 mM calcium salt, pH 7.4.; design: gene CD209; carbohydrate recognition domain, residues 250-404, MW 17 794 Da; conditions: SD, n = 6; read-out: Kd (nMS), Table S5
T1 sequence (Q9NNX6 250-404): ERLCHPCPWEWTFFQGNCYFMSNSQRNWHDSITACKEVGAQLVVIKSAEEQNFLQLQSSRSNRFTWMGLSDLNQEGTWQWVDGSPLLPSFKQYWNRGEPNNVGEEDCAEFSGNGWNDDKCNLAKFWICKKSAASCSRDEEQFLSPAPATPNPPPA

DC-SIGN CRD [3] = target: T1, DC-SIGN CRD; test: COIN-nMS (submicron emitters) with a mixture of ten glycans (G2, G5, G10, G14-G20), 200 mM ammonium acetate with 2.5 mM calcium salt, pH 7.4.; design: gene CD209; carbohydrate recognition domain, residues 250-404, MW 17 794 Da; conditions: SD, n = 6; read-out: Kd (COIN-nMS), Table S5
[4] = target: MAA (Maackia amurensis agglutinin); test: COIN-CaR-nMS; conditions: native and all α2-3-linked N-glycan natural libraries and purified 3SL, 3SLN; pH 6.9
GAL-3C [5] = target: T2, GAL-3C (Homo sapiens, UniProt P17931); test: Direct native ESI-MS with a mixture of ten glycans (G2, G5-G13), 200 mM ammonium acetate, pH 6.9.; design: gene LGALS3; C-terminal carbohydrate recognition domain fragment, residues 107-250; conditions: SD, n = 8; read-out: Kd (nMS), Table S3
T2 sequence (P17931 107-250): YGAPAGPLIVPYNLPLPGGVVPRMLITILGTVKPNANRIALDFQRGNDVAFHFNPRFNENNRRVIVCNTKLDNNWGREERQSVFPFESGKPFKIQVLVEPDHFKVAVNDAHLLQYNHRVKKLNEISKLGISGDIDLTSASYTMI

GAL-3C [6] = target: T2, GAL-3C; test: COIN-nMS with a mixture of ten glycans (G2, G5-G13), 200 mM ammonium acetate, pH 6.9.; design: gene LGALS3; C-terminal carbohydrate recognition domain fragment, residues 107-250; conditions: SD, n = 8; read-out: Kd (COIN-nMS), Table S3
GAL-7 [7] = target: T3, GAL-7 (Homo sapiens, UniProt P47929); test: Direct native ESI-MS of the GAL-7 homodimer with a mixture of ten glycans (G2, G5-G13), 200 mM ammonium acetate, pH 6.9.; conditions: SD, n = 8; read-out: Kd (nMS), Table S4
T3 construct: gene LGALS7; homodimer (monomer MW 14.94 kDa)
T3 sequence (P47929 whole entry): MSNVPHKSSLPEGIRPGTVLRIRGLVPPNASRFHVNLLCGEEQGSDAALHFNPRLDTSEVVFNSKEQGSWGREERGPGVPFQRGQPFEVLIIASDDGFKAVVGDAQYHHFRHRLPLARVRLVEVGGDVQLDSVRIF

GAL-7 [8] = target: T3, GAL-7; test: COIN-nMS of the GAL-7 homodimer with a mixture of ten glycans (G2, G5-G13), 200 mM ammonium acetate, pH 6.9.; conditions: SD, n = 8; read-out: Kd (COIN-nMS), Table S4
DC-SIGN CRD [9] = target: T1, DC-SIGN CRD; test: direct nMS affinity measurement; design: The carbohydrate recognition domain (CRD) of DC-SIGN (residues 250–404, MW 17 794 Da); made in house; conditions: glycans present as a mixture (G2, G5, G10, G14-G20); pH 7.4
DC-SIGN CRD [10] = target: T1, DC-SIGN CRD; test: COIN-nMS affinity measurement; design: The carbohydrate recognition domain (CRD) of DC-SIGN (residues 250–404, MW 17 794 Da); made in house; conditions: glycans present as a mixture (G2, G5, G10, G14-G20); average of six measurements; pH 7.4; read-out: Kd (COIN-nMS)

| Molecule | Kd (DC-SIGN CRD [2]) | Kd (DC-SIGN CRD [3]) | Kd [4] | other results |
| --- | --- | --- | --- | --- |
| CC(=O)N[C@H]1[C@H](O[C@H]2[C@H](O)[C@@H](NC(C)=O)C(O)O[C@@H]2CO[C@@H]2O[C@@H](C)[C@@H](O)[C@@H](O)[C@@H]2O)O[C@H](CO)[C@@H](O[C@@H]2O[C@H](CO[C@H]3O[C@H](CO)[C@@H](O)[C@H](O)[C@@H]3O[C@@H]3O[C@H](CO)[C@@H](O[C@@H]4O[C@H](CO)[C@H](O)[C@H](O)[C@H]4O)[C@H](O)[C@H]3NC(C)=O)[C@@H](O)[C@H](O[C@H]3O[C@H](CO)[C@@H](O)[C@H](O)[C@@H]3O[C@@H]3O[C@H](CO)[C@@H](O[C@@H]4O[C@H](CO)[C@H](O)[C@H](O)[C@H]4O)[C@H](O)[C@H]3NC(C)=O)[C@@H]2O)[C@@H]1O (stereo partly shown) [HexNAc4Hex5Fuc1] |  |  |  | Kd [1]: 1.4 ± 0.4 µM |
| OC[C@H]1O[C@H](O[C@@H]2[C@H](O)[C@@H](OC[C@H]3OC(O)[C@@H](O)[C@@H](O[C@H]4O[C@H](CO)[C@@H](O)[C@H](O)[C@@H]4O[C@H]4O[C@H](CO)[C@@H](O)[C@H](O)[C@@H]4O[C@H]4O[C@H](CO)[C@@H](O)[C@H](O)[C@@H]4O)[C@@H]3O)O[C@H](CO[C@H]3O[C@H](CO)[C@@H](O)[C@H](O)[C@@H]3O[C@H]3O[C@H](CO)[C@@H](O)[C@H](O)[C@@H]3O)[C@H]2O)[C@@H](O)[C@@H](O)[C@@H]1O (stereo partly drawn) [G14, α-D-Man-(1→2)-α-D-Man-(1→6)-[α-D-Man-(1→3)]-α-D-Man-(1→6)-[α-D-Man-(1→2)-α-D-Man-(1→2)-α-D-Man-(1→3)]-α-D-Man] | 270 µM | 260 µM |  |  |
| CC(=O)N[C@H]1[C@H](O[C@H]2[C@H](O)[C@@H](NC(C)=O)C(O)O[C@@H]2CO)O[C@H](CO)[C@@H](O[C@@H]2O[C@H](CO[C@H]3O[C@H](CO)[C@@H](O)[C@H](O)[C@@H]3O[C@@H]3O[C@H](CO)[C@@H](O[C@@H]4O[C@H](CO[C@]5(C(=O)O)C[C@H](O)[C@@H](NC(C)=O)[C@H]([C@H](O)[C@H](O)CO)O5)[C@H](O)[C@H](O)[C@H]4O)[C@H](O)[C@H]3NC(C)=O)[C@@H](O)[C@H](O[C@H]3O[C@H](CO)[C@@H](O)[C@H](O)[C@@H]3O[C@@H]3O[C@H](CO)[C@@H](O[C@@H]4O[C@H](CO[C@]5(C(=O)O)C[C@H](O)[C@@H](NC(C)=O)[C@H]([C@H](O)[C@H](O)CO)O5)[C@H](O)[C@H](O)[C@H]4O)[C@H](O)[C@H]3NC(C)=O)[C@@H]2O)[C@@H]1O (stereo partly shown) [HexNAc4Hex5NeuAc2] |  |  | 0.52 ± 0.2 µM |  |
| OC[C@H]1O[C@H](OC[C@H]2O[C@H](OC[C@H]3OC(O)[C@@H](O)[C@@H](O[C@H]4O[C@H](CO)[C@@H](O)[C@H](O)[C@@H]4O[C@H]4O[C@H](CO)[C@@H](O)[C@H](O)[C@@H]4O)[C@@H]3O)[C@@H](O)[C@@H](O[C@H]3O[C@H](CO)[C@@H](O)[C@H](O)[C@@H]3O)[C@@H]2O)[C@@H](O)[C@@H](O)[C@@H]1O (stereo partly drawn) [G16, α-D-Man-(1→3)[α-D-Man(1→6)]-α-D-Man(1→6)[α-D-Man(1→2)-α-D-Man-(1→3)]-α-D-Man] | 810 µM | 560 µM |  |  |
| OC[C@H]1O[C@H](O[C@H]2[C@H](O)[C@@H](O)[C@@H](O[C@H]3[C@H](O)[C@@H](O)[C@@H](O[C@H]4[C@H](O)[C@@H](O)[C@@H](O[C@H]5[C@H](O)[C@@H](O)C(O)O[C@@H]5CO)O[C@@H]4CO)O[C@@H]3CO)O[C@@H]2CO)[C@H](O)[C@@H](O)[C@@H]1O (stereo partly shown) [G20, maltopentaose] | 2410 µM | 1830 µM |  |  |
| CC(=O)N[C@H]1[C@H](O[C@H]2[C@H](O)[C@@H](NC(C)=O)C(O)O[C@@H]2CO)O[C@H](CO)[C@@H](O[C@@H]2O[C@H](CO[C@H]3O[C@H](CO)[C@@H](O)[C@H](O)[C@@H]3O[C@@H]3O[C@H](CO)[C@@H](O[C@@H]4O[C@H](CO[C@]5(C(=O)O)C[C@H](O)[C@@H](NC(=O)CO)[C@H]([C@H](O)[C@H](O)CO)O5)[C@H](O)[C@H](O)[C@H]4O)[C@H](O)[C@H]3NC(C)=O)[C@@H](O)[C@H](O[C@H]3O[C@H](CO)[C@@H](O)[C@H](O)[C@@H]3O[C@@H]3O[C@H](CO)[C@@H](O[C@@H]4O[C@H](CO[C@]5(C(=O)O)C[C@H](O)[C@@H](NC(=O)CO)[C@H]([C@H](O)[C@H](O)CO)O5)[C@H](O)[C@H](O)[C@H]4O)[C@H](O)[C@H]3NC(C)=O)[C@@H]2O)[C@@H]1O (stereo partly shown) [HexNAc4Hex5NeuGc2] |  |  | 0.49 ± 0.2 µM |  |
| CC(=O)N[C@H]1[C@@H](O[C@H]2[C@@H](O)[C@@H](CO)O[C@@H](O[C@H]3[C@H](O)[C@@H](NC(C)=O)C(O)O[C@@H]3CO)[C@@H]2O[C@@H]2O[C@@H](C)[C@@H](O)[C@@H](O)[C@@H]2O)O[C@H](CO)[C@H](O)[C@@H]1O (stereo partly drawn) [G10, α-D-GalNAc(1→3)-[α-L-Fuc(1→2)]-β-D-Gal(1→4)-D-GlcNAc] | 6010 µM | 2920 µM |  | Kd (GAL-3C [5]): 17.9 µM; Kd (GAL-3C [6]): 10.9 µM; Kd (GAL-7 [7]): 731 µM; Kd (GAL-7 [8]): 437 µM |
| CC(=O)N[C@H]1[C@H](O[C@H]2[C@@H](O)[C@@H](CO)O[C@@H](O[C@H]3[C@H](O)[C@@H](O)C(O)O[C@@H]3CO)[C@@H]2O)O[C@H](CO)[C@@H](O[C@@H]2O[C@H](CO)[C@H](O)[C@H](O[C@H]3O[C@H](CO)[C@H](O)[C@H](O)[C@H]3O)[C@H]2O[C@@H]2O[C@@H](C)[C@@H](O)[C@@H](O)[C@@H]2O)[C@@H]1O (stereo partly shown) [G18, blood group antigen G18] | 3330 µM | 1870 µM |  |  |
| CC(=O)N[C@H]1[C@H](O[C@H]2[C@@H](O)[C@@H](CO)OC(O)[C@@H]2O)O[C@H](CO)[C@@H](O[C@@H]2O[C@@H](C)[C@@H](O)[C@@H](O)[C@@H]2O)[C@@H]1O[C@@H]1O[C@H](CO)[C@H](O)[C@H](O)[C@H]1O[C@@H]1O[C@@H](C)[C@@H](O)[C@@H](O)[C@@H]1O (stereo partly shown) [G17, blood group antigen G17] | 620 µM | 550 µM |  |  |
| OC[C@H]1O[C@H](OC[C@H]2O[C@H](OC[C@H]3OC(O)[C@@H](O)[C@@H](O)[C@@H]3O)[C@@H](O)[C@@H](O[C@H]3O[C@H](CO)[C@@H](O)[C@H](O)[C@@H]3O)[C@@H]2O)[C@@H](O)[C@@H](O)[C@@H]1O (stereo partly shown) [G19, oligomannose glycan G19] | 1180 µM | 1500 µM |  |  |
| α-D-Man-(1→2)-α-D-Man-(1→3)-[α-D-Man-(1→6)-[α-D-Man-(1→2)-α-D-Man-(1→3)]-α-D-Man [Glycan G15] |  |  |  | Kd (DC-SIGN CRD [9]): 390 ± 50 µM; Kd (DC-SIGN CRD [10]): 410 ± 40 µM |
| CC(=O)N[C@H]1[C@H](O[C@H]2[C@H](O)[C@@H](NC(C)=O)C(O)O[C@@H]2CO[C@@H]2O[C@@H](C)[C@@H](O)[C@@H](O)[C@@H]2O)O[C@H](CO)[C@@H](O[C@@H]2O[C@H](CO[C@H]3O[C@H](CO)[C@@H](O)[C@H](O)[C@@H]3O[C@@H]3O[C@H](CO)[C@@H](O[C@@H]4O[C@H](CO)[C@H](O)[C@H](O)[C@H]4O)[C@H](O)[C@H]3NC(C)=O)[C@@H](O)[C@H](O[C@H]3O[C@H](CO)[C@@H](O)[C@H](O)[C@@H]3O[C@@H]3O[C@H](CO)[C@@H](O[C@@H]4O[C@H](CO[C@]5(C(=O)O)C[C@H](O)[C@@H](NC(C)=O)[C@H]([C@H](O)[C@H](O)CO)O5)[C@H](O)[C@H](O)[C@H]4O)[C@H](O)[C@H]3NC(C)=O)[C@@H]2O)[C@@H]1O (stereo partly shown) [HexNAc4Hex5Fuc1NeuAc1] |  |  | 0.57 ± 0.16 µM |  |
| CC(=O)N[C@H]1[C@H](O[C@H]2[C@H](O)[C@@H](NC(C)=O)C(O)O[C@@H]2CO[C@@H]2O[C@@H](C)[C@@H](O)[C@@H](O)[C@@H]2O)O[C@H](CO)[C@@H](O[C@@H]2O[C@H](CO[C@H]3O[C@H](CO)[C@@H](O)[C@H](O)[C@@H]3O[C@@H]3O[C@H](CO)[C@@H](O[C@@H]4O[C@H](CO[C@]5(C(=O)O)C[C@H](O)[C@@H](NC(C)=O)[C@H]([C@H](O)[C@H](O)CO)O5)[C@H](O)[C@H](O)[C@H]4O)[C@H](O)[C@H]3NC(C)=O)[C@@H](O)[C@H](O[C@H]3O[C@H](CO)[C@@H](O)[C@H](O)[C@@H]3O[C@@H]3O[C@H](CO)[C@@H](O[C@@H]4O[C@H](CO[C@]5(C(=O)O)C[C@H](O)[C@@H](NC(C)=O)[C@H]([C@H](O)[C@H](O)CO)O5)[C@H](O)[C@H](O)[C@H]4O)[C@H](O)[C@H]3NC(C)=O)[C@@H]2O)[C@@H]1O (stereo partly shown) [HexNAc4Hex5Fuc1NeuAc2] |  |  | 0.39 ± 0.08 µM |  |
